Measurements from paper PMC10865806, “Structural insights into the molecular mechanism of high-level ceftazidime–avibactam resistance conferred by CMY-185” (mBio, 2024).
Values after ≈ are worked out from the molar mass of the structure shown.

How the values were obtained:
CMY-2 = target: T1, CMY-2 (Klebsiella pneumoniae, UniProt Q48434); test: Steady-state hydrolysis kinetics; type: biochemical, Escherichia coli; settings: substrate 100 µM, 100–200 nM enzyme
T1 construct: all CMY-2 variant genes encoding the mature enzyme without a signal peptide were cloned into the protein expression plasmid vector pET-30b; made in house; host or cells: E. coli BL21 (DE3), pET-30b
Description: (§1) We tested the enzymes, CMY-2, two single mutants V211S (CMY-42) and N346Y, three double mutants A114E_N346Y, Q120K_N346Y, and V211S_N346Y, and the quadruplet mutant CMY-185 to elucidate the impact on the kinetic properties resulting from the four amino acid substitutions present in CMY-185 compared with CMY-2 ([8]). The steady-state kinetic parameters kcat and Km (or Ki app) for nitrocefin, cephalothin, ceftazidime, and cefiderocol and the inhibition parameters Ki app, k2/K, k−2, and koff for avibactam are summarized in Table 1. During the hydrolysis of nitrocefin, we observed the reduction of the initial velocity at concentrations above 50 µM particularly for the CMY-2 variants harboring the N346Y substitution. As this could have represented substrate inhibition, we then determined the kinetics parameters for nitrocefin using the Haldane equation ([16]). […] In addition, during the hydrolysis of cefiderocol by CMY-185, the initial velocities at a concentration range of 3.7–59.4 µM were similar.
(§2) The steady-state kinetics were carried out on a UV-Visible spectrometer (UV-1280, Shimadzu, Japan) in PBS pH 7.2 at 25°C with a constant amount of enzyme and varying concentrations of the substrates. We tested nitrocefin, cephalothin, ceftazidime, and cefiderocol as the substrates and avibactam as the inhibitor. The steady-state kinetics parameters Km and kcat were determined with the Michaelis-Menten equation. For poorly hydrolyzed substrates, the Km value was assumed to be the competitive inhibition constant (Ki app) value according to previous studies ([17], [19]). Inhibition parameter values of Ki app, k2/K, k−2, and koff for avibactam were determined using a method as described previously ([33]). Cephalothin was used as the reporter substrate for competitive inhibition experiments, and its concentration was fixed at 100 µM. […] Inverse steady-state initial velocities were plotted against the concentration of the competitive inhibitor agents, such as ceftazidime, cefiderocol, and avibactam. The data were analyzed by linear regression analysis of the Dixon plot, and Ki app (observed) was determined by dividing the y-intercept value by the slope of the line. It was then corrected to account for the affinity of cephalothin for each enzyme using the Equation (1): […]

CMY-2 variant N346Y = target: T2, CMY-2 variant N346Y (Klebsiella pneumoniae, UniProt Q48434, N366Y); test: Steady-state hydrolysis kinetics; type: biochemical, Escherichia coli; settings: substrate 100 µM, 100–200 nM enzyme
T2 construct: all CMY-2 variant genes encoding the mature enzyme without a signal peptide were cloned into the protein expression plasmid vector pET-30b; made in house; host or cells: E. coli BL21 (DE3), pET-30b
Description: as §1, §2

[1] = target: T3, CMY-2 variant A114E_N346Y (Klebsiella pneumoniae, UniProt Q48434, A134E/N366Y); test: Steady-state hydrolysis kinetics; type: biochemical, Escherichia coli; settings: substrate 100 µM, 100–200 nM enzyme
T3 construct: all CMY-2 variant genes encoding the mature enzyme without a signal peptide were cloned into the protein expression plasmid vector pET-30b; made in house; host or cells: E. coli BL21 (DE3), pET-30b
Description: as §1, §2

CMY-178 = settings: cited from earlier work
[2] = target: T4, CMY-2 variant V211S_N346Y (Klebsiella pneumoniae, UniProt Q48434, N366Y/V231S); test: Steady-state hydrolysis kinetics; type: biochemical, Escherichia coli
T4 construct: all CMY-2 variant genes encoding the mature enzyme without a signal peptide were cloned into the protein expression plasmid vector pET-30b; made in house; host or cells: E. coli BL21 (DE3), pET-30b
Description: as §1
The steady-state kinetics were carried out on a UV-Visible spectrometer (UV-1280, Shimadzu, Japan) in PBS pH 7.2 at 25°C with a constant amount of enzyme and varying concentrations of the substrates. We tested nitrocefin, cephalothin, ceftazidime, and cefiderocol as the substrates and avibactam as the inhibitor. The steady-state kinetics parameters Km and kcat were determined with the Michaelis-Menten equation. For poorly hydrolyzed substrates, the Km value was assumed to be the competitive inhibition constant (Ki app) value according to previous studies ([17], [19]). Inhibition parameter values of Ki app, k2/K, k−2, and koff for avibactam were determined using a method as described previously ([33]). Cephalothin was used as the reporter substrate for competitive inhibition experiments, and its concentration was fixed at 100 µM. The enzyme concentration was 1–10 nM. Inverse steady-state initial velocities were plotted against the concentration of the competitive inhibitor agents, such as ceftazidime, cefiderocol, and avibactam. The data were analyzed by linear regression analysis of the Dixon plot, and Ki app (observed) was determined by dividing the y-intercept value by the slope of the line. It was then corrected to account for the affinity of cephalothin for each enzyme using the Equation (1): […]

CC(C)(O/N=C(\C(=O)N[C@@H]1C(=O)N2C(C(=O)[O-])=C(C[N+]3(CCNC(=O)c4ccc(O)c(O)c4Cl)CCCC3)CS[C@H]12)c1csc(N)n1)C(=O)O [Cefiderocol, cefiderocol]
hydrolysis (CMY-2): no apparent hydrolysis | hydrolysis (CMY-2 variant N346Y): no apparent hydrolysis | hydrolysis [1]: no apparent hydrolysis | MIC (CMY-178): 1 µg/mL (≈ 1.33 µM) | fold lower Km ([2]; V211S_N346Y compared to V211S): 10 fold | Km ([2]; V211S_N346Y, PBS pH 7.2, 25°C): 6.9 ± 1.5 µM | kcat ([2]; V211S_N346Y, PBS pH 7.2, 25°C): 0.049 ± 0.003 s⁻¹
